Target: HEK cells stably transfected with tetracycline inducible hNR1 and hNR2A (Homo sapiens (Human), UniProt Q05586+Q12879)
Experiment: Assay 1: Cell-Based Assay (cytosolic calcium, positive allosteric modulation)
Details: for Emax: HEK293, scaled relative to 100 μM L-glutamate maximal response (100%) and 0 μM L-glutamate (0%), with 30 μM glycine and 300 nM L-glutamate, read-out: Max %; for EC50: with 30 μM glycine and 300 nM L-glutamate (EC30), given for compounds reaching maximal response plateaus
Procedure: Assay 1: Cell-Based Assay
HEK cells stably transfected with tetracycline inducible hNR1 and hNR2A were seeded into clear bottom 384 well poly-D-lysine coated plates (2.5×10^4 cells per well) in Minimum Essential Media (MEM; without L-) including 7.5 μg mL doxycycline and 500 μM (+)-ketamine. The cells were incubated at 37° C. in 5% CO2 for 24 h. For measurement of changes in cytosolic calcium, the seeding media was removed and the cells incubated at 37° C. for 60 min with 1× Becton Dickinson Calcium Assay Kit reagent in Hanks Balanced Salt Solution (HBSS; w/o magnesium, including 1.8 mM calcium, 0.65 mg ml^−1 probenecid and 10 μM (+)-ketamine, pH 7.15) then allowed to equilibrate to rt for 30 min. Concentration-effect curves to Positive Allosteric Modulators (PAMs) were constructed by adding different concentrations (with 30 μM glycine and 300 nM L-glutamate (EC30)) to different wells in HBSS. Compounds were added after a 10 second baseline read and maximum level of relative fluorescence units (RFU) was measured over a 5 min period. Responses were scaled relative to 100 μM L-glutamate maximal response (100%) and 0 μM L-glutamate (0%). EC50 values are provided for compounds reaching maximal response plateaus, and the max % (EC50 (--)) only if no plateau was reached.
A four-parameter Hill equation was fitted to individual concentration-effect curves:
[formula] in which Y, S0, Sinf, AC50, n and c were effect, lower-asymptote, upper-asymptote, mid-point location, slope parameter, and concentration respectively.

HEK cells stably transfected with tetracycline inducible hNR1 and hNR2A, sequence (Q12879 23-1464, other chains not shown): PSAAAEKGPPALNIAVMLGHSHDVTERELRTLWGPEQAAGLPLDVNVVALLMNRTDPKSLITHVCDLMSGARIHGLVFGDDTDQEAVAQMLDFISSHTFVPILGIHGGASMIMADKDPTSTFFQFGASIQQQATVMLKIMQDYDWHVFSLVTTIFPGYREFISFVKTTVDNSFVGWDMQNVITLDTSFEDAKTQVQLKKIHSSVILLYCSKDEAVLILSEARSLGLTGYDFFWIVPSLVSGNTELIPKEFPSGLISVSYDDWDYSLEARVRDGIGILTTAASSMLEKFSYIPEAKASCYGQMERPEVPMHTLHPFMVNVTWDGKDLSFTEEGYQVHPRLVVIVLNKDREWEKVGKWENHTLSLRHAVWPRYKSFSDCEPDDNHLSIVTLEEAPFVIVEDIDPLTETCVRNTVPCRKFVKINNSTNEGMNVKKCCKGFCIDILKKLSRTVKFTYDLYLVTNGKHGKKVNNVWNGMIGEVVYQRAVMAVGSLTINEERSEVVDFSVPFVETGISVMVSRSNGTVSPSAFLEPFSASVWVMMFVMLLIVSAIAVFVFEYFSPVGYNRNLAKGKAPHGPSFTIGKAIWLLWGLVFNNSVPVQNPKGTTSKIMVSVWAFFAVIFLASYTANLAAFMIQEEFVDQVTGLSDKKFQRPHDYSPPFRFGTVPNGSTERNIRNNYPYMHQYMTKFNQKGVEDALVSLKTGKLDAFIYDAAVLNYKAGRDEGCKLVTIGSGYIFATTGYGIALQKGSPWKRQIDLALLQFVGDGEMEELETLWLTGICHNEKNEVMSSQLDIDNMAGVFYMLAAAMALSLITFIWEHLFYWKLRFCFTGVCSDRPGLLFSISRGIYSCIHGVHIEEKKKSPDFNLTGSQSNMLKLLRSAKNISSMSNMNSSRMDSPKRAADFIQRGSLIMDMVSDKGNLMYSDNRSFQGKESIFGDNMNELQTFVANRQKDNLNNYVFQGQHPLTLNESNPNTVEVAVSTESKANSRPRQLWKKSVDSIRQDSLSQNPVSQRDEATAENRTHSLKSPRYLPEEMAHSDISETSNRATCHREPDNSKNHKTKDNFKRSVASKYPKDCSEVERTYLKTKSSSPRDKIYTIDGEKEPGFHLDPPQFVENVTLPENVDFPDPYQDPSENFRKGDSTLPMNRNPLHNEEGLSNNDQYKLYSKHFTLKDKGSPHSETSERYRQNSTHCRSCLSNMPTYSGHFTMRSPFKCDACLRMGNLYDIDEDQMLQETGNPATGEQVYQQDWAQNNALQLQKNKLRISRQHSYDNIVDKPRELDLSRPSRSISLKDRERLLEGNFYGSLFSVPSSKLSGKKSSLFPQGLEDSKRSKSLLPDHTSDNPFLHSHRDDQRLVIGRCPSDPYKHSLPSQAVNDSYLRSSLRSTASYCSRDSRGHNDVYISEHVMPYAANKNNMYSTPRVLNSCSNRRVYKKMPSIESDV

| Compound | Emax [%] | EC50 [µM] |
| --- | --- | --- |
| Cc1ccc2nc(CN(C)c3ccccc3)cc(=O)n2c1 [Compound 2, 7-methyl-2-[(N-methylanilino)methyl]pyrido[1,2-a]pyrimidin-4-one] | 75 | – |
| CCN(Cc1cc(=O)n2cc(C)ccc2n1)c1ccccc1 [Compound 3, 2-[(N-ethylanilino)methyl]-7-methyl-pyrido[1,2-a]pyrimidin-4-one] | 122 | 11.1 |
| CCN(Cc1cc(=O)n2cc(C)ccc2n1)c1ccc(F)cc1 [Compound 4, 2-[(N-ethyl-4-fluoro-anilino)methyl]-7-methyl-pyrido[1,2-a]pyrimidin-4-one] | 134 | 5.2 |
| CCc1cccc2nc(CN(CC)c3ccc(F)cc3)cc(=O)n12 [Compound 5, 6-ethyl-2-[(N-ethyl-4-fluoro-anilino)methyl]pyrido[1,2-a]pyrimidin-4-one] | 134 | 6.4 |
| CCc1cccc2nc(CN(CC)c3ccccc3)cc(=O)n12 [Compound 6, 6-ethyl-2-[(N-ethylanilino)methyl]pyrido[1,2-a]pyrimidin-4-one] | 138 | 11.5 |
| CCN(Cc1cc(=O)n2c(C)cccc2n1)c1ccc(F)cc1 [Compound 7, 2-[(N-ethyl-4-fluoro-anilino)methyl]-6-methyl-pyrido[1,2-a]pyrimidin-4-one] | 111 | 13.6 |
| CCN(Cc1cc(=O)n2c(OC)cccc2n1)c1ccc(F)cc1 [Compound 8, 2-[(N-ethyl-fluoro-anilino)methyl]-6-methoxy-pyrido[1,2-a]pyrimidin-4-one] | 117 | – |
| CCOc1cccc2nc(CN(CC)c3ccc(F)cc3)cc(=O)n12 [Compound 9, 6-ethoxy-2-[(N-ethyl-4-fluoro-anilino)methyl]pyrido[1,2-a]pyrimidin-4-one] | 120 | 5 |
| CCN(Cc1cc(=O)n2c(OC)c(C)ccc2n1)c1ccc(F)cc1 [Compound 10, 2-[(N-ethyl-4-fluoro-anilino)methyl]-6-methoxy-7-methyl-pyrido[1,2-a]pyrimidin-4-one] | 51 | – |
| CCOc1c(C)ccc2nc(CN(CC)c3ccc(F)cc3)cc(=O)n12 [Compound 11, 6-ethoxy-2-[(N-ethyl-4-fluoro-anilino)methyl]-7-methyl-pyrido[1,2-a]pyrimidin-4-one] | 53 | – |
| CCN(Cc1cc(=O)n2c(-c3cncnc3)cccc2n1)c1ccc(F)cc1 [Compound 12, 2-[(N-ethyl-4-fluoro-anilino)methyl]-6-pyrimidin-5-yl-pyrido[1,2-a]pyrimidin-4-one] | 161 | 6.4 |
| CCN(Cc1cc(=O)n2c(-c3ccco3)cccc2n1)c1ccc(F)cc1 [Compound 13, 2-[(N-ethyl-4-fluoro-anilino)methyl]-6-(2-furyl)pyrido[1,2-a]pyrimidin-4-one] | 172 | 0.371 |
| CCN(Cc1cc(=O)n2c(C#N)cccc2n1)c1ccc(F)cc1 [Compound 14, 2-[(N-ethyl-4-fluoro-anilino)methyl]-4-oxo-pyrido[1,2-a]pyrimidine-6-carbonitrile] | 163 | 5.8 |
| CCN(Cc1cc(=O)n2c(Br)cccc2n1)c1ccc(F)cc1 [Compound 15, 6-bromo-2-[(N-ethyl-4-fluoro-anilino)methyl]pyrido[1,2-a]pyrimidin-4-one] | 159 | 6.2 |
| CCNC(=O)c1c(C)ccc2nc(COc3ccc(F)cc3)cc(=O)n12 [Compound 16, N-ethyl-2-[(4-fluorophenoxy)methyl]-7-methyl-4-oxo-pyrido[1,2-a]pyrimidine-6-carboxamide] | 159 | 3.6 |
| CCNC(=O)c1c(C)ccc2nc(Cn3nc(C(F)(F)F)cc3C3CC3)cc(=O)n12 [Compound 17, 2-[[5-cyclopropyl-3-(trifluoromethyl)pyrazol-1-yl]methyl]-N-ethyl-7-methyl-4-oxo-pyrido[1,2-a]pyrimidine-6-carboxamide] | 148 | 4 |
| CCNC(=O)c1c(C)ccc2nc(Cn3nc(C4CC4)cc3C(F)(F)F)cc(=O)n12 [Compound 18, 2-[[3-cyclopropyl-5-(trifluoromethyl)pyrazol-1-yl]methyl]-N-ethyl-7-methyl-4-oxo-pyrido[1,2-a]pyrimidine-6-carboxamide] | 122 | 16.2 |
| CCNC(=O)c1c(C)ccc2nc(Cc3cccc(C#N)c3F)cc(=O)n12 [Compound 19, 2-[(3-cyano-2-fluoro-phenyl)methyl]-N-ethyl-7-methyl-4-oxo-pyrido[1,2-a]pyrimidine-6-carboxamide] | 65 | – |
| CCNC(=O)c1cccc2nc(Cn3nc(C(F)(F)F)cc3C3CC3)cc(=O)n12 [Compound 20, 2-[[5-cyclopropyl-3-(trifluoromethyl)pyrazol-1-yl]methyl]-N-ethyl-4-oxo-pyrido[1,2-a]pyrimidine-6-carboxamide] | 116 | 7.4 |
| CCNC(=O)c1cccc2nc(Cc3cccc(C#N)c3F)cc(=O)n12 [Compound 21, 2-[(3-cyano-2-fluoro-phenyl)methyl]-N-ethyl-4-oxo-pyrido[1,2-a]pyrimidine-6-carboxamide] | 43 | – |
| CNC(=O)c1c(C)ccc2nc(Cc3cccc(C(F)(F)F)c3F)cc(=O)n12 [Compound 22, 2-[[2-fluoro-3-(trifluoromethyl)phenyl]methyl]-N,7-dimethyl-4-oxo-pyrido[1,2-a]pyrimidine-6-carboxamide] | 69 | – |

Second part, the compound after the results:

| Emax [%] | EC50 [µM] | Compound |
| --- | --- | --- |
| 59 | – | CNC(=O)c1c(C)ccc2nc(Cc3cccc(Cl)c3F)cc(=O)n12 [Compound 23, 2-[(3-chloro-2-fluoro-phenyl)methyl]-N,7-dimethyl-4-oxo-pyrido[1,2-a]pyrimidine-6-carboxamide] |
| 67 | – | CNC(=O)c1c(C)ccc2nc(Cc3cccc(C4CC4)c3F)cc(=O)n12 [Compound 24, 2-[(3-cyclopropyl-2-fluoro-phenyl)methyl]-N,7-dimethyl-4-oxo-pyrido[1,2-a]pyrimidine-6-carboxamide] |
| 51 | – | CNC(=O)c1c(C)ccc2nc(Cc3cccc(C#N)c3F)cc(=O)n12 [Compound 25, 2-[(3-cyano-2-fluoro-phenyl)methyl]-N,7-dimethyl-4-oxo-pyrido[1,2-a]pyrimidine-6-carboxamide] |
| 34 | – | CNC(=O)c1c(C)ccc2nc(Cc3cccc(C#N)c3F)c(F)c(=O)n12 [Compound 26, 2-[(3-cyano-2-fluoro-phenyl)methyl]-3-fluoro-N,7-dimethyl-4-oxo-pyrido[1,2-a]pyrimidine-6-carboxamide] |
| 162 | 2.7 | CCN(Cc1cc(=O)n2c(C(=O)NC)c(C)ccc2n1)c1ccc(F)cc1 [Compound 27, 2-[(N-ethyl-4-fluoro-anilino)methyl]-N,7-dimethyl-4-oxo-pyrido[1,2-a]pyrimidine-6-carboxamide] |
| 60 | – | CCNC(=O)c1c(C)ccc2nc(Cn3ccc(C(F)(F)F)n3)cc(=O)n12 [Compound 28, N-ethyl-7-methyl-4-oxo-2-[[3-(trifluoromethyl)pyrazol-1-yl)methyl]pyrido[1,2-a]pyrimidine-6-carboxamide] |
| 147 | 5.9 | CNC(=O)c1c(C)ccc2nc(Cn3nc(C(F)(F)F)cc3C3CC3)cc(=O)n12 [Compound 29, 2-[[5-cyclopropyl-3-(trifluoromethyl)pyrazol-1-yl]methyl]-N,7-dimethyl-4-oxo-pyrido[1,2-a]pyrimidine-6-carboxamide] |
| 101 | – | CNC(=O)c1c(C)ccc2nc(Cn3nc(C4CC4)cc3C(F)(F)F)cc(=O)n12 [Compound 30, 2-[[3-cyclopropyl-5-(trifluoromethyl)pyrazol-1-yl]methyl]-N,7-dimethyl-4-oxo-pyrido[1,2-a]pyrimidine-6-carboxamide] |
| 48 | – | CNC(=O)c1c(C)ccc2nc(Cc3cccc(Cl)c3F)c(F)c(=O)n12 [Compound 31, 2-[(3-chloro-2-fluoro-phenyl)methyl]-3-fluoro-N,7-dimethyl-4-oxo-pyrido[1,2-a]pyrimidine-6-carboxamide] |
| 136 | – | CCNC(=O)c1cc(C)cc2nc(Cn3nc(C(F)(F)F)cc3C3CC3)cc(=O)n12 [Compound 32] |
| 198 | – | Cc1ccc2nc(Cn3nc(C(F)(F)F)cc3C3CC3)cc(=O)n2c1C(=O)NCC(F)(F)F [Compound 33, 2-[[5-cyclopropyl-3-(trifluoromethyl)pyrazol-1-yl]methyl]-7-methyl-4-oxo-N-(2,2,2-trifluoroethyl)pyrido[1,2-a]pyrimidine-6-carboxamide] |
| 99 | 25.5 | Cc1ccc2nc(Cn3nc(C(F)(F)F)cc3Cl)cc(=O)n2c1[C@H]1C[C@@H]1C#N [Compound 34, (1S,2S)-2-[2-[[5-chloro-3-(trifluoromethyl)pyrazol-1-yl]methyl]-7-methyl-4-oxo-pyrido[1,2-a]pyrimidin-6-yl]cyclopropanecarbonitrile] |
| 132 | 0.077 | Cc1ccc2nc(Cn3nc(C(F)(F)F)cc3Cl)cc(=O)n2c1[C@@H]1C[C@H]1C#N [Compound 35, (1R,2R)-2-[2-[[5-chloro-3-(trifluoromethyl)pyrazol-1-yl]methyl]-7-methyl-4-oxo-pyrido[1,2-a]pyrimidin-6-yl]cyclopropanecarbonitrile] |

From patent US10280165B2, “Pyridopyrimidinones and methods of use thereof” (Genentech, Inc., priority 2015, dated 2019)
